Measurements: US7744867B2, “PTPase inhibitors and method of using same” (The Cleveland Clinic Foundation, priority 2001, dated 2010)
Each block holds one compound with its values, some of them ahead of it.

What was measured:
[1] = test system: acute promyelocytic leukemia (APL); conditions: in vivo; cited from earlier work
NB4 cells = assay: Differentiation, proliferation and cell cycle of AML cell line; format: cell-based, human; conditions: 3 days; sodium stibogluconate 250 μg/ml, ATRA 1 μM
Method: Cell lines, cell culture, and cell proliferation assay. The NB4 cell line was a gift from Dr. Dan Lindner of CCF. HL60 and U937 cell lines were purchased from ATCC. These human AML cell lines were maintained in RPMI 1640 medium supplemented with 10% fetal calf serum (FCS). For cell proliferation assays, cells were cultured at 37° C. in 10% FCS medium containing various amounts of sodium stibogluconate for 6 days. The cell numbers in the cultures were determined by an MTT assay as described previously.
Differentiation of AML cell lines was assessed by their ability to produce superoxide as measured by reduction of NBT to formazan and by analysis of expression of CD11b surface marker by flow cytometry. For NBT reduction, each cell suspension was mixed with an equal volume of solution containing 1 mg/ml of NBT (Sigma) and 2.5 μg/ml of TPA for 30 minutes at 37° C. After incubation, cells containing the purple formazan deposits and cells devoid of NBT-reducing activity (white cells) in each sample were determined by counting 200 cells under microscope. We expressed the data as percentage of the following ratio: purple cells/purple+white cells. For analysis of cell surface antigens, cells were exposed to phycoerythrin (PE)−conjugated murine anti-human CD11b (DAKO corp, Carpinteria, Calif.). Analysis of fluorescence was performed on a FACScan flow cytometer (Beckton Dickinson, Mountain View, Calif.). The cell cycle was analyzed by flow cytometry after 3 days of culture of NB4 cells in the absence or presence of sodium stibogluconate (250 μg/ml) or ATRA (1 μM). Briefly, the cells were fixed in cold ethanol and incubated for 30 minutes at 4° C. in the dark with a solution of […] propidium iodide, 1 mg/ml RNase and 0.1% NP-40. Analysis was performed immediately after staining using the CELLFIT program (Becton Dickinson, Mountain View, Calif.).

intracellular Flag-PRL-3 = molecular target: T1, intracellular Flag-PRL-3 (Homo sapiens, UniProt O75365); assay: PTPase activity of anti-Flag immunocomplexes from NIH3T3 transfectants; format: cell-based; conditions: treated 5 min
T1 construct: expressed in transfected cells; host or cells: NIH3T3
Method: (§1) An expression construct of Flag-tagged PRL-1 or control vector was transfected into NIH3T3 cells which were then treated without or with sodium stibogluconate and used for immunoprecipitation assays with a monoclonal anti-Flag antibody. The immunocomplexes were analyzed by SDS-PAGE/Western blotting and PTPase assays. A Flag-tagged protein with a molecular weight approximately 22 kDa as expected for Flag-PRL-1 was detected in the immunocomplexes from untreated or sodium stibogluconate -treated Flag-PRL-1 transfectants but not in those from the control cells (FIG. 6A).
(§2) Glucatime inactivates intracellular PRL phosphatases. NIH3T3 stable transfectants of Flag-tagged PRL-1 (A), PRL-2 (B) and PRL-3 (C) were untreated or treated with glucatime for 5 minutes and then washed to remove cell free drug. The Flag-tagged PRLs were immunoprecipitated from the cells using a monoclonal anti-Flag antibody. The amounts of Flag-tagged PRLs in the immunocomplexes were quantified by SDS-PAGE/Western blotting with the anti-Flag antibody (the top panel). Activities of the immunocomplexes in dephosphorylating a synthetic phosphotyrosine peptide were determined by in vitro PTPase assays (the low panel).

intracellular Flag-PRL-1 = molecular target: T2, intracellular Flag-PRL-1 (Homo sapiens, UniProt Q93096); assay: as above; format: cell-based; conditions: treated 5 min
T2 construct: expressed in transfected cells; host or cells: NIH3T3
Method: as §1, §2

[2] = molecular target: T3, PTP1B (GST fusion protein) (Homo sapiens, UniProt P18031); assay: In vitro PTPase assay, dephosphorylation of a synthetic phosphotyrosine peptide; format: biochemical
T3 construct: purchased Upstate Biotechnology Inc. (UBI, Lake Placid, N.Y.)
Method: (§3) In vitro PTPase activities were measured using the commercial protein tyrosine phosphatase assay kit (UBI) following established procedure. […] 100 μl of Malachite Green solution was added and incubated for 5 minutes, and the absorbance at 660 nm was measured after 5 minutes.

GST/SHP-1 fusion protein = molecular target: T4, GST/SHP-1 fusion protein (Mus musculus, UniProt P29351); assay: Reversibility of SHP-1 inhibition (washing of bead-bound GST/SHP-1); format: biochemical; conditions: preincubated with inhibitor, then washed
T4 construct: made in house
Description: The beads were then washed 3 times in Tris buffer or without washing prior to in vitro PTPase assays.

[3] = test system: human cancer cell lines (A549, DR, HEY, MDA231, SK-N-SH, WM9); assay: Growth of human cancer cell lines with glucatime and/or IFNα (MTT, 6 days); format: cell-based
Method: Growth of human cancer cell lines cultured in the absence or presence of glucatime and/or IFNα (500 U/ml) for 6 days were determined by MTT assays. These cell lines were of different human malignancies, including lung cancer (A549), lymphoma (DR), ovarian cancer (HEY), breast cancer (MDA231, or MDA), neuroblastoma (SK-N-SH, or SK) and melanoma (WM9).

recombinant PRL-2 = molecular target: T5, recombinant PRL-2 (Homo sapiens, UniProt Q12974); assay: In vitro PTPase assay with recombinant PRL; format: biochemical
T5 construct: made in house; host or cells: E. coli DH5α
T5 sequence (Q12974 1-167): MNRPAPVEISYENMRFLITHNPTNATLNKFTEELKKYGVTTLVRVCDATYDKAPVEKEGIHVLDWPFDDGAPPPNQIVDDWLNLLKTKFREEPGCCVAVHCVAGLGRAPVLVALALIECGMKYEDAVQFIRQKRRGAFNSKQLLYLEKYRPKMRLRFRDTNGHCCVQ
Method: as §3
(§4) Recombinant GST fusion proteins of human PRL-1, 2 and 3 phosphatases were purified with glutathione beads from DH5α bacteria transformed by pGEX vectors containing cDNA fragments encoding the human PRLs which were generated by RT-PCR from H9 cells and confirmed by sequence analysis. Activities of the purified recombinant PRL proteins in dephosphorylating DiFMUP in the absence or presence of various inhibitors were measured following established procedure.
(§5) To assess whether sodium stibogluconate is an inhibitor of oncogenic PRL phosphatases, its effects on the PTPase activity of recombinant PRLs were evaluated by in vitro PTPase assays.

recombinant PRL-1 = molecular target: T6, recombinant PRL-1 (Homo sapiens, UniProt Q93096); assay: In vitro PTPase assay with recombinant PRL; format: biochemical; conditions: peptide substrate
T6 construct: made in house; host or cells: E. coli DH5α
Method: as §3, §4, §5

recombinant PRL-3 = molecular target: T7, recombinant PRL-3 (Homo sapiens, UniProt O75365); assay: In vitro PTPase assay with recombinant PRL (peptide or DiFMUP substrate); format: biochemical; conditions: peptide substrate
T7 construct: made in house; host or cells: E. coli DH5α
Method: as §3, §4, §5

intracellular Flag-PRL-2 = molecular target: T8, intracellular Flag-PRL-2 (Homo sapiens, UniProt Q12974); assay: PTPase activity of anti-Flag immunocomplexes from NIH3T3 transfectants; format: cell-based
T8 construct: expressed in transfected cells; host or cells: NIH3T3
T8 sequence (Q12974 1-167): T5 sequence (Q12974 1-167)
Method: as §1
Flag-PRL-2 transfectants were briefly treated with sodium stibogluconate for 5 minutes, washed to remove cell-free drug and then incubated for various times prior to termination by cell lysis. Anti-Flag immunocomplexes from the cells were analyzed by SDS-PAGE/Western blotting and PTPase assays. The amounts of Flag-PRL-2 proteins in the immunocomplexes were at similar levels as quantified by probing with an anti-Flag antibody. […] PTPase activity of the immunocomplexes from cells incubated for 24 hours was 78% of the untreated cells.
Glucatime-induced inactivation of intracellular PRL-2 lasts more than 24 hours. NIH3T3 stable transfectant of Flag-tagged PRL-2 was treated with glucatime for 5 minutes, washed to remove cell free drug and then incubated for various times prior to termination by lysing the cells in lysis buffer. Flag-tagged PRL-2 was immunoprecipitated from the cell lysates using a monoclonal anti-Flag antibody. The amounts of Flag-tagged PRL-2 in the immunocomplexes were quantified by SDS-PAGE/Western blotting with the anti-Flag antibody (A). Activities of the immunocomplexes in dephosphorylating a synthetic phosphotyrosine peptide were determined by in vitro PTPase assays (B).

intracellular PTP1B = molecular target: T9, intracellular PTP1B (Mus musculus, UniProt P35821); assay: PTPase activity of anti-PTP1B immunocomplexes from NIH3T3 cells; format: cell-based; conditions: treated 5 minutes
T9 construct: endogenous in cells; host or cells: NIH3T3
Method: NIH3T3 cells were untreated or treated with glucatime for 5 minutes. PTP1B protein was immunoprecipitated from the cells using an anti-PTP1B antibody. The amounts of PTP1B in the immunocomplexes were quantified by SDS-PAGE/Western blotting with the anti-PTP1B antibody (A). Activities of the immunocomplexes in dephosphorylating a synthetic phosphotyrosine peptide were determined by in vitro PTPase assays (B).

PTPases = assay: PTPase inhibition in vitro by ketoconazole; format: biochemical

T2 sequence (Q93096 whole entry): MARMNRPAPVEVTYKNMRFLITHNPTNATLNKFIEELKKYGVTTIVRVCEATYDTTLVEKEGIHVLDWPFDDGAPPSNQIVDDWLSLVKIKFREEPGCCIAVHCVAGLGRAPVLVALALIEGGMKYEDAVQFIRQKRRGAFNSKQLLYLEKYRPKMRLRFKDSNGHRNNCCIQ
T6 sequence (Q93096 whole entry): as above
T1 sequence (O75365 whole entry): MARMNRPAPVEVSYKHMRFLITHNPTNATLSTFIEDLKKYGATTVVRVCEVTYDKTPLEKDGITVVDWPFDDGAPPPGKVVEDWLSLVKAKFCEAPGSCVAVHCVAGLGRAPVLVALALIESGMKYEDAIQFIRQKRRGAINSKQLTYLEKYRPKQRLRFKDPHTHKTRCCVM
T7 sequence (O75365 whole entry): as above
T9 sequence (P35821 whole entry): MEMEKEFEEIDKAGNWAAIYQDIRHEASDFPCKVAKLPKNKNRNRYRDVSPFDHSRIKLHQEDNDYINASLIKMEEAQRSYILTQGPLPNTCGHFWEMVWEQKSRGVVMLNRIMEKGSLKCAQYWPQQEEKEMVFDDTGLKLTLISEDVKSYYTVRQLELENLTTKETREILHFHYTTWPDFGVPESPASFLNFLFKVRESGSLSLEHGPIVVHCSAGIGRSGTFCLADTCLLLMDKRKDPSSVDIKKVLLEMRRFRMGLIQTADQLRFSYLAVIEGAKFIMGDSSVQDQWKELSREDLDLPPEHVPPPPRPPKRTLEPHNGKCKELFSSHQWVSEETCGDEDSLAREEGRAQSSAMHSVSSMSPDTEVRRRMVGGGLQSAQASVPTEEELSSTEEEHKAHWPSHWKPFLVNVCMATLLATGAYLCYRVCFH
T3 sequence (P18031 whole entry, species assumed, the tested form may be a part): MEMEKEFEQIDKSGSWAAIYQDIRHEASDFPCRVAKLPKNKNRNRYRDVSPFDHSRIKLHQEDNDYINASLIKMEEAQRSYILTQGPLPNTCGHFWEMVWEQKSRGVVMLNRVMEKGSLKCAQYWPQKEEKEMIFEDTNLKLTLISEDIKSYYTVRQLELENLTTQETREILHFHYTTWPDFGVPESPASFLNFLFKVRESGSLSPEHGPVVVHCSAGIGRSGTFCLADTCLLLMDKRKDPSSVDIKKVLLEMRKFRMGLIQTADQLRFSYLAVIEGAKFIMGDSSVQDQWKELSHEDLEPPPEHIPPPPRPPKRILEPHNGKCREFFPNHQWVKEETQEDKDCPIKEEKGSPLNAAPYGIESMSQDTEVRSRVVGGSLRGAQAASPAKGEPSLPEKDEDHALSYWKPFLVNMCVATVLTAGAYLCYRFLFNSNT

SMILES: CC1=C(/C=C/C(C)=C/C=C/C(C)=C/C(=O)O)C(C)(C)CCC1 [ATRA, all-trans-retinoic acid]
long term APL-free survival [1]: exceeding 75%
cell cycle arrest (DNA content analysis) (NB4 cells): arrested at G1 phase

SMILES: CNC[C@H](O)[C@@H](O)[C@H](O)[C@H](O)CO.[O]=[Sb]([OH])([OH])[OH] [glucatime, meglumine antimonate]
PTPase activity of Flag-PRL-3 immunocomplexes from treated transfectants (intracellular Flag-PRL-3): inactivates
PTPase activity of Flag-PRL-1 immunocomplexes from treated transfectants (intracellular Flag-PRL-1): inactivates
effect against recombinant PTP1B in vitro [2]: partial inhibitory effect
reversibility of SHP-1 inhibition (GST/SHP-1 fusion protein): irreversible
IFNα-induced growth inhibition in presence of glucatime ([3]; IFNα 500 U/ml): augments
growth of human cancer cell lines in culture ([3]; MTT): inhibits the growth
inhibition of recombinant PRL-2 (recombinant PRL-2; peptide substrate): potent inhibitor
reversibility of PRL-2 inactivation (recombinant PRL-2; washing process / stable complex): irreversible
inhibition of recombinant PRL-1 (recombinant PRL-1): potent inhibitor
inhibition of recombinant PRL-3 (recombinant PRL-3): potent inhibitor
PTPase activity of Flag-PRL-2 immunocomplexes from treated transfectants (intracellular Flag-PRL-2; treated 5 min): inactivates
duration of intracellular PRL-2 inactivation (intracellular Flag-PRL-2; treated 5 minutes, washed to remove cell free drug): more than 24 hours
inhibition of intracellular PTP1B (intracellular PTP1B): partial inhibition

PTPase inhibition in vitro (PTPases): inhibits different PTPases
SMILES: CC(=O)N1CCN(c2ccc(OCC3COC(Cn4ccnc4)(c4ccc(Cl)cc4Cl)O3)cc2)CC1 (stereo not shown) [ketoconazole]
